For two molecules, logP results are on record in ChEMBL document CHEMBL1139116, “Discovery and SAR of isonicotinamide BACE-1 inhibitors that bind beta-secretase in a N-terminal 10s-loop down conformation” (Bioorg Med Chem Lett, 2007).

A short description of the data set: Partition coefficient, log P of the compound. As to conditions: octanol/water. It is filed as physicochemical.

The molecule `CCCC[C@H](N)[C@H](Cc1ccccc1)NC(=O)c1cc(NCC2CC2C)nc(N(C)S(C)(=O)=O)c1` (mixture of isomers) gave a logP above 2.51. As for `CC1CC1CNc1cc(C(=O)N[C@@H](Cc2ccccc2)[C@@H](N)CCC(F)(F)F)cc(N(C)S(C)(=O)=O)n1` (mixture of isomers), the logP was above 3.5.
